These results are taken from paper PMC4177084 (Journal of Thyroid Research, 2014).

pIC50: −log10 of the molar value.

For one test, the target named is T1, PDGFRα (Homo sapiens, UniProt P16234).
T1 construct: purchased Carna Biosciences, Inc. (Kobe, Japan)
The test can be described thus: Cell free kinase inhibition assay. The format is biochemical.

For another test, the target named is T2, FGFR1 (Homo sapiens, UniProt P11362).
T2 construct: purchased Carna Biosciences, Inc. (Kobe, Japan)
Put plainly: Cell free kinase inhibition assay. It is filed as biochemical.

The target of a further test is T3, FRK (Homo sapiens, UniProt P42685).
T3 construct: purchased Carna Biosciences, Inc. (Kobe, Japan)
The test can be described thus: Cell free kinase inhibition assay. The format is biochemical.

The next test concerns the target T4, KIT(V654A) (Homo sapiens, UniProt P10721, V654A).
T4 construct: purchased Carna Biosciences, Inc. (Kobe, Japan)
The test can be described thus: Cell free kinase inhibition assay. The format is biochemical.

Another test has as its target T5, TIE2 (Homo sapiens, UniProt Q02763).
T5 construct: purchased Carna Biosciences, Inc. (Kobe, Japan)
The test can be described thus: Cell free kinase inhibition assay. It is filed as biochemical.

The next test addresses T6, FLT3 (Homo sapiens, UniProt P36888).
T6 construct: purchased Carna Biosciences, Inc. (Kobe, Japan)
The test can be described thus: Cell free kinase inhibition assay. It is filed as biochemical.

A further test deals with T7, EPHB4 (Homo sapiens, UniProt P54760).
T7 construct: purchased Carna Biosciences, Inc. (Kobe, Japan)
The test can be described thus: Cell free kinase inhibition assay. It is filed as biochemical.

The target of a further test is T8, MUSK (Homo sapiens, UniProt O15146).
T8 construct: purchased Carna Biosciences, Inc. (Kobe, Japan)
Put plainly: Cell free kinase inhibition assay. The format is biochemical.

In another test the target is T9, GSK3β (Homo sapiens, UniProt P49841).
T9 construct: purchased Carna Biosciences, Inc. (Kobe, Japan)
Put plainly: Cell free kinase inhibition assay. The format is biochemical.

Another test concerns the target T10, IRAK4 (Homo sapiens, UniProt Q9NWZ3).
T10 construct: purchased Carna Biosciences, Inc. (Kobe, Japan)
The test can be described thus: Cell free kinase inhibition assay. It is filed as biochemical.

Test [1] concerns human thyroid cancer cell lines. Put plainly: Antiproliferation assay, panel of 11 cell lines. The format is cell-based. As to conditions: 9 out of the 11 cell lines, in vitro antiproliferative. On the procedure: The human DTC cell lines K1, FTC-133, FTC-236, FTC-238, and RO82-W-1 and the human thyroid follicular epithelial cell line Nthy-ori 3-1 were obtained from DS Pharma Biomedical Co., Ltd. (Osaka, Japan). The human MTC cell line TT was obtained from the American Type Culture Collection (Manassas, VA). The human ATC cell lines 8305C, 8505C, HTC/C3, KHM-5M, and TCO-1 were obtained from the Japanese Collection of Research Bioresources Cell Bank (Osaka, Japan). […]
Cells (1,000–3,000/well) were seeded and cultured in 96-well culture plates. […] Cell numbers were determined by using WST-8 (Dojindo, Kumamoto, Japan); 10 μL of WST-8 was added to each well, and absorbance was measured at a wavelength of 450 nm and compared with a reference measurement at 660 or 665 nm by using an MTP-500 microplate reader (Corona Electric, Ibaraki, Japan) or an EnVision Multilabel Reader (Perkin Elmer, Turku, Finland). […]

Another test relates to FRS2. The test can be described thus: Western blot of FRS2 phosphorylation in RO82-W-1 xenografts. As to conditions: 2 h after single oral 3, 10, 30, or 100 mg/kg. It is filed as in vivo, nude mice. (In western blotting, separated proteins are transferred to a membrane and probed.)
In another test the target is T11, KIF5B-RET (M918T) (Homo sapiens, UniProt P07949+P33176, M918T).
T11 construct: KIF5B N-terminal portion (fusion partner); expressed in transfected cells; host or cells: Nthy-ori 3-1 (human normal thyroid cells), plasmid pCLxIP KIF5B-RET M918T
The test can be described thus: Western blot of RET phosphorylation in Nthy-ori 3-1 transfectants. It is filed as cell-based. As to conditions: 1 h. An excerpt:
(§1) The human full-length KIF5B-RET gene was chemically synthesized by GenScript Corp. (Piscataway, NJ) and then amplified by polymerase chain reaction (PCR) using a primer set containing attB recombination sequences. ENTRY vectors for the Gateway cloning system (Life Technologies) were generated via the BP Clonase reaction using the PCR products and the plasmid pDONR221. The expression vector pCLxIP KIF5B-RET was generated via the LR Clonase reaction between each ENTRY vector and the destination vector pCLxIP-DEST [37]. Expression vectors for KIF5B-RET M918T were generated by introducing a point mutation into the pCLxIP KIF5B-RET expression vector.

Another test concerns the target T12, KIF5B-RET (wild-type) (Homo sapiens, UniProt P07949+P33176).
T12 construct: KIF5B N-terminal portion (fusion partner); expressed in transfected cells; host or cells: Nthy-ori 3-1 (human normal thyroid cells), plasmid pCLxIP KIF5B-RET
Described as above. It is filed as cell-based. As to conditions: 1 h.
Description: as §1

The subject of another test is K1 xenograft. The test can be described thus: Human thyroid cancer xenograft model, tumor growth. It is filed as in vivo, nude mice. Conditions: K1 xenograft, 1, 3, and 10 mg/kg oral once daily 14 days. On the procedure: (§2) Nude mice (CAnN.Cg-Foxn1nu/CrlCrlj, female, 5-6 weeks old) were obtained from Charles River Laboratories Japan (Kanagawa, Japan). Mice were maintained under specific pathogen-free conditions and housed in barrier facilities on a 12 h light/dark cycle, with food and water ad libitum. All procedures using laboratory animals were done in accordance with all applicable institutional and government regulatory guidelines and policies and were performed in an animal facility accredited by the Center for Accreditation of Laboratory Animal Care of the Japan Health Sciences Foundation. Tumor cells were cultured in appropriate culture mediums. […] Then, 0.1-0.2 mL of the cell suspension was inoculated subcutaneously into the right flank region of each mouse. […] The tumor size was measured in two dimensions by using a caliper, and the volume was calculated by using the formula: tumor volume (mm^3) = 1/2 length (mm) × [width (mm)]^2. The change in tumor volume in the treated group relative to that in the control group was calculated according to the following formula: ΔT/C = (ΔT/ΔC) × 100%, where ΔT and ΔC are the change in tumor volume (i.e., growth) for the treated and vehicle control group, respectively. The percentage of tumor growth inhibition (%TGI) was calculated from the formula: [(1 − ΔT/ΔC) × 100].
On the technique in general: Xenograft models place foreign cells or tissue in a host animal.

A further test deals with TT xenograft. The test can be described thus: Human thyroid cancer xenograft model, tumor growth. The format is in vivo, nude mice. On the procedure: as §2

T5 sequence (Q02763 23-1124): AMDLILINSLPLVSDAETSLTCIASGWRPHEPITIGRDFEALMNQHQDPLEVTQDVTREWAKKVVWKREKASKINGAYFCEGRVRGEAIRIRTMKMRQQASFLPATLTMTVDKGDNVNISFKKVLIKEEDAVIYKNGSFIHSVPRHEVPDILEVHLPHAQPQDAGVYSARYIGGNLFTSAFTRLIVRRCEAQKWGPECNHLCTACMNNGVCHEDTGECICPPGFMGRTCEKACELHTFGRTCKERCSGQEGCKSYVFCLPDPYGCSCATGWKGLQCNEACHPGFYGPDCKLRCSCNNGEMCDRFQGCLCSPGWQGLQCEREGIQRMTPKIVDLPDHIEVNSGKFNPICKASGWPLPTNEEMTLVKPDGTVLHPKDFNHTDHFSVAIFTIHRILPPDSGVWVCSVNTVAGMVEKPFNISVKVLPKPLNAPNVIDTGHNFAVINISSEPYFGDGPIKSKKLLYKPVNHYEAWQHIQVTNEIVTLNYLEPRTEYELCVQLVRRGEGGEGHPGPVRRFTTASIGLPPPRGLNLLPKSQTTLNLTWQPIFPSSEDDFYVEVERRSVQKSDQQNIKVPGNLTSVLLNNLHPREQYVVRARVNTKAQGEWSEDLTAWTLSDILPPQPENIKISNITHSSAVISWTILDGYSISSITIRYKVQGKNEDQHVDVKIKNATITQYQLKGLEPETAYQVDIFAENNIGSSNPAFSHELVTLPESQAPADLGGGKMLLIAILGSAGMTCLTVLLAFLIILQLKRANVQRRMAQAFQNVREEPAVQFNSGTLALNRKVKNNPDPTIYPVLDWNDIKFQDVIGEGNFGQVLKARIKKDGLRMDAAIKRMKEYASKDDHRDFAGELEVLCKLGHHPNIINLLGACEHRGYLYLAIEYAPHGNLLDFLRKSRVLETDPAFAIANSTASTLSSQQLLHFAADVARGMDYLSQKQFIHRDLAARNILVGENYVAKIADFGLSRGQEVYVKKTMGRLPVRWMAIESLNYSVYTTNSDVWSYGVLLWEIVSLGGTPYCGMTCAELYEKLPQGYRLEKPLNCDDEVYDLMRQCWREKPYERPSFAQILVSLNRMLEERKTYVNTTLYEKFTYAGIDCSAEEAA
T2 sequence (P11362 22-822): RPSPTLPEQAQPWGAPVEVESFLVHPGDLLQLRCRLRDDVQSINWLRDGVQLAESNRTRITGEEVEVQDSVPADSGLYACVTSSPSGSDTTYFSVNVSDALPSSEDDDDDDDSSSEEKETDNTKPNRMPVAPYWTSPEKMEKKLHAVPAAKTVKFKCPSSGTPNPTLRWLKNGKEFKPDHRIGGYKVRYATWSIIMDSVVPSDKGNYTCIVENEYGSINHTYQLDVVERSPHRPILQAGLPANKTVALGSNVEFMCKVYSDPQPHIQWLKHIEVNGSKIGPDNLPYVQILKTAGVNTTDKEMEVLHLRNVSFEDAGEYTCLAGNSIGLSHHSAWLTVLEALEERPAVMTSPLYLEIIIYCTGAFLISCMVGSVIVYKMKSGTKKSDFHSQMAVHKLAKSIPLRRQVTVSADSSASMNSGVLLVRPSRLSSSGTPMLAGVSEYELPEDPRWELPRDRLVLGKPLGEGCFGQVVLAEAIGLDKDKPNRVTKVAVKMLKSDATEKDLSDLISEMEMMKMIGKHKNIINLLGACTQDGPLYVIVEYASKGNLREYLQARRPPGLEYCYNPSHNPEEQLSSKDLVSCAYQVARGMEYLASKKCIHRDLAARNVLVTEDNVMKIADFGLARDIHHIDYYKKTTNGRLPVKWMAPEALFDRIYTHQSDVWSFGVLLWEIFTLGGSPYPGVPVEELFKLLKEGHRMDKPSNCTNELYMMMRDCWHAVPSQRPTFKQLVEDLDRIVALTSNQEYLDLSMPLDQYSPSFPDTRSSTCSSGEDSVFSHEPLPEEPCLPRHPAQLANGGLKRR
T3 sequence (P42685 whole entry): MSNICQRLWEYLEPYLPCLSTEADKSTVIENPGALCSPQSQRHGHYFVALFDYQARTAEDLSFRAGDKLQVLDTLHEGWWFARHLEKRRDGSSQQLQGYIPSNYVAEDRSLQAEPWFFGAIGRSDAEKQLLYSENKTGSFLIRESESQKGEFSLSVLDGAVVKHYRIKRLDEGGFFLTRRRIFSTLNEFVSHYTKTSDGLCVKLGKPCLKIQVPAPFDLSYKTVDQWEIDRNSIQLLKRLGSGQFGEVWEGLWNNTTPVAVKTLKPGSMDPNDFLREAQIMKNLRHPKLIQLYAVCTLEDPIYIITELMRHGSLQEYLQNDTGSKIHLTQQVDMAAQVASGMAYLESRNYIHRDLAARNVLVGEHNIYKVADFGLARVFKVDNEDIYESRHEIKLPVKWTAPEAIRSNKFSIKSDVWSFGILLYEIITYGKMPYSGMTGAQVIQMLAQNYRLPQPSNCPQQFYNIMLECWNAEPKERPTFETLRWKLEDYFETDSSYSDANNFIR
T7 sequence (P54760 16-987): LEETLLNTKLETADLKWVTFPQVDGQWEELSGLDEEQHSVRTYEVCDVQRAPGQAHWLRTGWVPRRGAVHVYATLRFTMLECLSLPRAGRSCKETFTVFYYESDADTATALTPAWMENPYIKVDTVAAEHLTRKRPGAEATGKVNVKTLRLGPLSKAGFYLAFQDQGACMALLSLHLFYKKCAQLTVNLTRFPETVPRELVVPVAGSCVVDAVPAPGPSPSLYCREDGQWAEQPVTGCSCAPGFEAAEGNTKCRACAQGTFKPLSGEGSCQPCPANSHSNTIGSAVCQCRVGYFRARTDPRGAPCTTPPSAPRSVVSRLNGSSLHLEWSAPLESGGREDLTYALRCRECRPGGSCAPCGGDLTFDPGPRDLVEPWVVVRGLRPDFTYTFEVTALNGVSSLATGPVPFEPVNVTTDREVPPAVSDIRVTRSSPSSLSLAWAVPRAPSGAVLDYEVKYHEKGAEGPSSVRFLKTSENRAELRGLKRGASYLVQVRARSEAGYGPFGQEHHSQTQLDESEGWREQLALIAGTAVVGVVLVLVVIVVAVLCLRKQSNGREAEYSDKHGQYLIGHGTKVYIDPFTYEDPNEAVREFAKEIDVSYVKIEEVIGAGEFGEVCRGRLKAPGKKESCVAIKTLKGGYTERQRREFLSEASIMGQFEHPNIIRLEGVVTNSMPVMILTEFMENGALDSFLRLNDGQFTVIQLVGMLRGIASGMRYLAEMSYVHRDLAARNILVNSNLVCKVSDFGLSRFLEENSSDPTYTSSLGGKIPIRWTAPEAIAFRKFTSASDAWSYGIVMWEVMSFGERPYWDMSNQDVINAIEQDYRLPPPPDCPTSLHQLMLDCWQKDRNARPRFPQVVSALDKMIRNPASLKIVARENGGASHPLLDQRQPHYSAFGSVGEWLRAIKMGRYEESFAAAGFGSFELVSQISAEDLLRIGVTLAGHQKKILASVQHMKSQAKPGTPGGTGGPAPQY
T6 sequence (P36888 27-993): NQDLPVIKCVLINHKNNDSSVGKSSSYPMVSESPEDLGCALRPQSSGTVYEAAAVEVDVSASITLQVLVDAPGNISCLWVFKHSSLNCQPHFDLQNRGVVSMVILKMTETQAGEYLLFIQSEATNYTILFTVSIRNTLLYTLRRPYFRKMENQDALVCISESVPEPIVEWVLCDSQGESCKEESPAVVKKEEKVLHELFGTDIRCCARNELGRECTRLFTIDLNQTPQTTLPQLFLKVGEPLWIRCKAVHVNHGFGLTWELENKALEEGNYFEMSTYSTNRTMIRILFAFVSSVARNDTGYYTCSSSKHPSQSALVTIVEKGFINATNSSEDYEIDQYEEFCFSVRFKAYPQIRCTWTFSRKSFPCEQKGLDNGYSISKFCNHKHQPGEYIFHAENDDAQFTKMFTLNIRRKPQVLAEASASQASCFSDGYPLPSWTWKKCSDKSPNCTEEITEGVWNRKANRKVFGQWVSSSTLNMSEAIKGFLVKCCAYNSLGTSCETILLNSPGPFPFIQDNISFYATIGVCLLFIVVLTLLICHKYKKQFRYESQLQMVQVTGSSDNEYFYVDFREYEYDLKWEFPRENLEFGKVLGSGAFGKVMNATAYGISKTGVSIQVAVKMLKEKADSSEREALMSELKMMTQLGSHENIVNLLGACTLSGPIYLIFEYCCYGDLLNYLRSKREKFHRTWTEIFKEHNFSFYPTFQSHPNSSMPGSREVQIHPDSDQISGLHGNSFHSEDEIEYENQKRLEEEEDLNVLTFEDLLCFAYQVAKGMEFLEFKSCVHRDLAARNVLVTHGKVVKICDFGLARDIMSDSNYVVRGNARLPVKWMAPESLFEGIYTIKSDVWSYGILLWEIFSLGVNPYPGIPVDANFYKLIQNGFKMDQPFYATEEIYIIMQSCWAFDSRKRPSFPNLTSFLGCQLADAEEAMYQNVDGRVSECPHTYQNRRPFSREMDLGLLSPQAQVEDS
T11 sequence (P07949 713-1063 M918T limits assumed, one chain of several): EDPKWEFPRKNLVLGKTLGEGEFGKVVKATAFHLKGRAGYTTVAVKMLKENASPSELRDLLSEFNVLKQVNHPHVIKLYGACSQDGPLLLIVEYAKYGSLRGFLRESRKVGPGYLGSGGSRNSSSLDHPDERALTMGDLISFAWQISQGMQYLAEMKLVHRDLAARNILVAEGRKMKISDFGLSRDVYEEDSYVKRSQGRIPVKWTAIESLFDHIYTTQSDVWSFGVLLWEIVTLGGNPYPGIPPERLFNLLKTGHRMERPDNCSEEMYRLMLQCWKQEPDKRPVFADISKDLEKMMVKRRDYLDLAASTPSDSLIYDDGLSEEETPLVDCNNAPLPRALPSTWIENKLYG
T12 sequence (P07949 713-1063 limits assumed, one chain of several): as the sequence (P07949 713-1063 M918T limits assumed, one chain of several) above, with T206M counted along it

In the case of `COc1cc2nccc(Oc3ccc(NC(=O)NC4CC4)c(Cl)c3)c2cc1C(N)=O` [Lenvatinib, Lenvatinib mesilate], the negative logarithm of the IC50 (pIC50) against PDGFRα was 7.54; against FGFR1, 7.21; against FRK, 6.80; at KIT(V654A), 6.28; against TIE2, 5.60; on FLT3 it was 5.39. The pIC50 on EPHB4 is 5.34; against MUSK, less than 5.00; on GSK3β, less than 5.00; on IRAK4 it was less than 5.00; in [1] it was less than 5.00. For the same molecule, the “phosphorylation of FRS2” value in the test with FRS2 is “decreased”. Also, on KIF5B-RET (M918T), the “phosphorylation of M918T mutant RET” value is recorded as “inhibited”. In addition, on KIF5B-RET (wild-type), the “phosphorylation of wild-type RET” value is “inhibited”. Further, the antitumor activity entry with K1 xenograft is reported as “significant antitumor activity”. In addition, in the test on TT xenograft (TT xenografts, 100 mg/kg oral once daily 29 days), the tumor volume change result is recorded as “tumor shrinkage”. Besides, in the test on TT xenograft (TT xenografts, 10, 30, and 100 mg/kg oral once daily 29 days), the “in vivo tumor growth” value is reported as “inhibited in vivo tumor growth of TT xenografts in a dose-dependent manner”.

For orientation: pIC50 means the IC50 on a negative log10 scale, so that one unit is a factor of ten. Lower therefore signals a high IC50.
